Reference: publication PMC8757604 (Journal of Enzyme Inhibition and Medicinal Chemistry, 2022)
Entries after “also recorded” stand apart in the source; their conditions may differ.

Experiments:
[1] = target: T1, α-amylase from hog pancreas (Sus scrofa, UniProt P00690); assay: α-Amylase inhibition assay (starch/DNS, absorbance 540 nm)
T1 sequence (P00690 16-511): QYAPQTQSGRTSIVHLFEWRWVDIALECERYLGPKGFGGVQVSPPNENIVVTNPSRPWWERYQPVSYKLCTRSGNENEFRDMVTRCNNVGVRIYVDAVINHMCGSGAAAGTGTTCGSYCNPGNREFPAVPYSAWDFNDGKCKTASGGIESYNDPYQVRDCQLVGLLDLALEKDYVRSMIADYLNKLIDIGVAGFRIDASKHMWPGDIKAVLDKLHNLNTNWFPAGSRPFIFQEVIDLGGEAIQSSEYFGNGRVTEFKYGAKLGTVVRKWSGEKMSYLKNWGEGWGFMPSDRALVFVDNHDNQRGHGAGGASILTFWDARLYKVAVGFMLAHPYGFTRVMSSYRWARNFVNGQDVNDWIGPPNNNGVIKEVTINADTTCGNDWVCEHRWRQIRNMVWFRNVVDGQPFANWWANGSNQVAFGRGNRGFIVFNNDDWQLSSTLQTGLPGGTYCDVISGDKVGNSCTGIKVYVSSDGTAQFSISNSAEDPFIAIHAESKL

[2] = target: T2, α-Glucosidase from Saccharomyces cerevisiae (Saccharomyces cerevisiae, UniProt P53341); assay: biochemical; type: biochemical; conditions: for IC50: mean ± SD, enzyme 0.1 U/mL, p-NPG 0.25 mM, pH 6.8, 37 °C, read-out: α-Glucosidase inhibition (IC50)
T2 sequence (P53341 whole entry): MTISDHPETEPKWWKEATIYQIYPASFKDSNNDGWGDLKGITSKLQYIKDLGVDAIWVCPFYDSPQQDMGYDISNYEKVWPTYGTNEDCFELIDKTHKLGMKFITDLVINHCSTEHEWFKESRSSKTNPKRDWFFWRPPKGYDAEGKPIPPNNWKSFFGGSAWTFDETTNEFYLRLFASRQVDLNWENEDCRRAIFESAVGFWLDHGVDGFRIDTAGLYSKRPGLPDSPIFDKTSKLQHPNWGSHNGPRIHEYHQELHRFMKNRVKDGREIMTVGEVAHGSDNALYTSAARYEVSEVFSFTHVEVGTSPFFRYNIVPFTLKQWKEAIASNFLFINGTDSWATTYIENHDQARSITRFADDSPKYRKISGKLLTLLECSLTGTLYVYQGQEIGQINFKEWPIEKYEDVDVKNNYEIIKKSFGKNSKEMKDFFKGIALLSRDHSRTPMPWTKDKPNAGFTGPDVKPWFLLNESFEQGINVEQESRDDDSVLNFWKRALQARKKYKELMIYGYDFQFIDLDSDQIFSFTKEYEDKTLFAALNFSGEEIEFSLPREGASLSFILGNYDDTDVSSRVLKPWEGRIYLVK

[3] = test system: HepG2 cells; assay: Cells cytotoxicity assay (MTT), HepG2; type: cell-based; conditions: 24 h treatment, under concentration of 100 µM
Procedure: (§1) 3T3–L1 or HepG2 cells were cultured in Dulbecco’s modified Eagle medium (DMEM) with 10% foetal bovine serum (FBS), 100 IU/mL penicillin and 100 IU/mL streptomycin at 37 °C under 5% CO2. 3T3-L1 cells (2 × 10^3) or HepG2 cells ([…]) were plated onto 96-well plate ([…]) and incubated for 24 h. After treated with compound (3a or 3f) for 24 h, the cells were added […] (0.5 mg/mL) and incubated for 4 h. Then […] was added to dissolve the blue insoluble MTT formazan. Finally, the absorbance was measured at 570 nm using a microplate reader. Each sample was performed in triplicate.

[4] = target: T1, α-amylase from hog pancreas; assay: α-Amylase inhibition kinetics (V vs [E], Lineweaver–Burk plots); type: biochemical; parameters: α-amylase from hog pancreas (EC3.2.1.1); from tissue; host or cells: hog pancreas; conditions: 3f 0-15.0 μM
Description: Compound 3f with the strongest inhibitory activity against α-amylase was selected as the representative compound for the enzyme inhibitory kinetic analysis.
The enzyme inhibition kinetics analysis was investigated. The operation method was similar with the assay of α-glucosidase, except the concentrations of test compound, enzyme and substrate.

[5] = test system: 3T3-L1 cells; assay: Cells cytotoxicity assay (MTT), 3T3-L1; type: cell-based; conditions: 24 h treatment, under concentration of 100 µM
Procedure: as §1

[6] = target: T2, α-Glucosidase from Saccharomyces cerevisiae; assay: α-Glucosidase inhibition kinetics (V vs [E], Lineweaver–Burk plots); type: biochemical; conditions: 3a 0-0.5 μM
Procedure: To probe into the inhibition mechanism of OA derivatives (3a–3t) against α-glucosidase, compound 3a with the strongest inhibitory activity was selected as the representative compound for the enzyme inhibitory kinetic analysis. […] The inhibition kinetic behaviours were investigated using the Lineweaver–Burk plots.
The enzyme inhibition kinetics analysis was investigated using previously reported method with minor modifications[25]^,[26]. In brief, inhibitory effect was determined from the plots of absorbance change of OA derivatives at different concentrations with enzyme at different concentrations. The inhibition type was measured based on the Lineweaver–Burk plot of absorbance change of OA derivatives at different concentrations with p-NPG substrate at different concentrations.

Row | SMILES | IC50 [1] [µM] | IC50 [2] [µM] | also measured
1 | CC1(C)CC[C@]2(C(=O)O)CC[C@]3(C)C(=CCC4[C@@]5(C)CC/C(=N\OC(=O)/C=C/c6ccc(C(F)(F)F)cc6)C(C)(C)C5CC[C@]43C)C2C1 (stereo partly shown) [Compound 3g] | 12.6 ± 2.37 | 3.13 ± 0.13 | –
2 | CC1(C)CC[C@]2(C(=O)O)CC[C@]3(C)C(=CCC4[C@@]5(C)CC/C(=N\OC(=O)c6ccc([N+](=O)[O-])cc6)C(C)(C)C5CC[C@]43C)C2C1 (stereo partly shown) [Compound 3r] | 70.7 ± 1.25 | 1.41 ± 0.12 | –
3 | CC1(C)CC[C@]2(C(=O)O)CC[C@]3(C)C(=CCC4[C@@]5(C)CC/C(=N\OC(=O)c6ccc(Br)cc6)C(C)(C)C5CC[C@]43C)C2C1 (stereo partly shown) [Compound 3p] | 15.9 ± 1.75 | 1.81 ± 0.05 | –
4 | CC1(C)CC[C@]2(C(=O)O)CC[C@]3(C)C(=CCC4[C@@]5(C)CC/C(=N\OC(=O)c6ccc7c(c6)OCO7)C(C)(C)C5CC[C@]43C)C2C1 (stereo partly shown) [Compound 3s] | 18.7 ± 1.29 | 1.37 ± 0.06 | –
5 | Cc1ccc(C(=O)O/N=C2\CC[C@@]3(C)C(CC[C@]4(C)C3CC=C3C5CC(C)(C)CC[C@]5(C(=O)O)CC[C@]34C)C2(C)C)cc1 (stereo partly shown) [Compound 3l] | 55.3 ± 2.39 | 0.99 ± 0.05 | –
6 | CC1(C)CC[C@]2(C(=O)O)CC[C@]3(C)C(=CCC4[C@@]5(C)CC/C(=N\OC(=O)c6ccc(C(F)(F)F)cc6)C(C)(C)C5CC[C@]43C)C2C1 (stereo partly shown) [Compound 3q] | 33.6 ± 1.93 | 3.43 ± 0.17 | –
7 | CC1(C)CCC2(C(=O)O)CCC3(C)C(=CCC4C5(C)CCC(=NOC(=O)C=Cc6ccc(Br)cc6)C(C)(C)C5CCC43C)C2C1 (stereo not shown) [Compound 3f] | 3.8 ± 0.65 | 1.28 ± 0.03 | Cytotoxicity to HepG2 cells [3]: non-cytotoxic; α-amylase inhibition, times better than OA ([1]; ratio of IC50 vs OA): ~25 times; α-amylase inhibition, times better than acarbose ([1]; ratio of IC50 vs acarbose): ~26 times; Inhibition type towards α-amylase ([4]; Lineweaver–Burk plots): mixed types; also recorded: mixed-type inhibitor; Reversibility of α-amylase inhibition ([4]; plots of V vs α-amylase concentration): reversible; Cytotoxicity to 3T3-L1 cells [5]: non-cytotoxic
8 | CC1(C)CCC2(C(=O)O)CCC3(C)C(=CCC4C5(C)CCC(=NOC(=O)C=Cc6ccccc6)C(C)(C)C5CCC43C)C2C1 (stereo not shown) [Compound 3a] | 7.86 ± 1.24 | 0.35 ± 0.06 | Cytotoxicity to HepG2 cells [3]: non-cytotoxic; Inhibition type towards α-glucosidase ([6]; Lineweaver–Burk plots): mixed-type inhibitor; also recorded: mixed types; Reversibility of α-glucosidase inhibition ([6]; plots of V vs [E]): reversible; α-glucosidase inhibition, times stronger than OA ([2]; ratio of IC50 vs OA): ~11 times; α-glucosidase inhibition, times stronger than acarbose ([2]; ratio of IC50 vs acarbose): ~1900 times; Cytotoxicity to 3T3-L1 cells [5]: non-cytotoxic
9 | CC1(C)CC[C@]2(C(=O)O)CC[C@]3(C)C(=CCC4[C@@]5(C)CC/C(=N\OC(=O)/C=C/c6ccc(O)cc6)C(C)(C)C5CC[C@]43C)C2C1 (stereo partly shown) [Compound 3j] | 70.8 ± 2.31 | 0.82 ± 0.09 | –
10 | CC1(C)CC[C@]2(C(=O)O)CC[C@]3(C)C(=CCC4[C@@]5(C)CC/C(=N\OC(=O)c6ccc(F)cc6)C(C)(C)C5CC[C@]43C)C2C1 (stereo partly shown) [Compound 3n] | 70.2 ± 2.53 | 1.96 ± 0.25 | –
11 | CC1(C)CC[C@]2(C(=O)O)CC[C@]3(C)C(=CCC4[C@@]5(C)CC/C(=N\OC(=O)c6ccc(Cl)cc6)C(C)(C)C5CC[C@]43C)C2C1 (stereo partly shown) [Compound 3o] | 26.3 ± 1.61 | 1.74 ± 0.14 | –
12 | CC1(C)CC[C@]2(C(=O)O)CC[C@]3(C)C(=CCC4[C@@]5(C)CC/C(=N\OC(=O)c6ccccc6)C(C)(C)C5CC[C@]43C)C2C1 (stereo partly shown) [Compound 3k] | 25.6 ± 1.66 | 0.67 ± 0.04 | –
13 | Cc1ccc(/C=C/C(=O)O/N=C2\CC[C@@]3(C)C(CC[C@]4(C)C3CC=C3C5CC(C)(C)CC[C@]5(C(=O)O)CC[C@]34C)C2(C)C)cc1 (stereo partly shown) [Compound 3b] | 15.3 ± 1.41 | 0.68 ± 0.03 | –
14 | COc1ccc(/C=C/C(=O)O/N=C2\CC[C@@]3(C)C(CC[C@]4(C)C3CC=C3C5CC(C)(C)CC[C@]5(C(=O)O)CC[C@]34C)C2(C)C)cc1 (stereo partly shown) [Compound 3c] | 25.4 ± 1.17 | 0.89 ± 0.07 | –
15 | CC1(C)CC[C@]2(C(=O)O)CC[C@]3(C)C(=CCC4[C@@]5(C)CC/C(=N\OC(=O)c6ccc(O)cc6)C(C)(C)C5CC[C@]43C)C2C1 (stereo partly shown) [Compound 3t] | 152 ± 4.24 | 0.91 ± 0.04 | –
16 | COc1ccc(C(=O)O/N=C2\CC[C@@]3(C)C(CC[C@]4(C)C3CC=C3C5CC(C)(C)CC[C@]5(C(=O)O)CC[C@]34C)C2(C)C)cc1 (stereo partly shown) [Compound 3m] | 35.5 ± 2.41 | 1.1 ± 0.1 | –
17 | CC1(C)CC[C@]2(C(=O)O)CC[C@]3(C)C(=CCC4[C@@]5(C)CC/C(=N\OC(=O)/C=C/c6ccc(Cl)cc6)C(C)(C)C5CC[C@]43C)C2C1 (stereo partly shown) [Compound 3e] | 5.64 ± 1.29 | 0.95 ± 0.06 | –
18 | CC1(C)CC[C@]2(C(=O)O)CC[C@]3(C)C(=CCC4[C@@]5(C)CC/C(=N\OC(=O)/C=C/c6ccc([N+](=O)[O-])cc6)C(C)(C)C5CC[C@]43C)C2C1 (stereo partly shown) [Compound 3h] | 18.3 ± 1.92 | 1.36 ± 0.03 | –
19 | CC1(C)CC[C@]2(C(=O)O)CC[C@]3(C)C(=CCC4[C@@]5(C)CC/C(=N\OC(=O)/C=C/c6ccc7c(c6)OCO7)C(C)(C)C5CC[C@]43C)C2C1 (stereo partly shown) [Compound 3i] | 17.9 ± 1.21 | 0.71 ± 0.02 | –
20 | CC1(C)CC[C@]2(C(=O)O)CC[C@]3(C)C(=CCC4[C@@]5(C)CC/C(=N\OC(=O)/C=C/c6ccc(F)cc6)C(C)(C)C5CC[C@]43C)C2C1 (stereo partly shown) [Compound 3d] | 17.5 ± 1.52 | 1.45 ± 0.12 | –
